Source: PMC8147781, “Discovery of Pyrrolidine-2,3-diones as Novel Inhibitors of P. aeruginosa PBP3” (Antibiotics, 2021)
In brackets after ≈: the same amount, converted by molar mass.

Legend:
A. baumannii ATCC15308 = experiment: MIC broth microdilution, A. baumannii; type: cell-based; conditions: 10 µg/mL PMBN
Procedure, shortened: (§1)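 CLSI broth microdilution in cation-adjusted Mueller Hinton broth, 5 × 10^4 bacteria per well with 1:2 serial compound dilutions, PMBN added where applicable. MIC read visually after 18 h at 37 °C. Confirmation by 10% PrestoBlue, fluorescence at Ex/Em 550/595 nm after 30 min.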

E. coli Neumann = experiment: MIC broth microdilution, E. coli; type: cell-based; conditions: Escherichia coli; Table S3; read-out: MIC (µM) E. coli Neumann
Procedure, shortened: as §1

[1] = test system: H9, cutaneous T lymphocyte cell line; experiment: Cytotoxicity assay (PrestoBlue), H9; conditions: CC50, 72 h
Method: (§2) We finally tested the cytotoxicity of the compounds against four eukaryotic cell lines (Table 2 and Table S5), NRK-52E, an epithelial kidney cell line of Rattus norvegicus; Hep G2, an human epithelial liver cell line; and two suspension cell lines: CCRF-CEM, a T lymphoblast; and H9, a cutaneous T lymphocyte cell line.
(§3) Cell lines stored at −120 °C were thawed to 37 °C and resuspended in 10 mL of medium pre-warmed to 37 °C. Cells were pelleted at 300× g for 10 min, and then resuspended in fresh medium, seeded in a T-75 culture flask, and placed in a CO2 incubator (37 °C with 5% CO2 tension). Once the cells reached approximately 70–80% confluency, they were then passaged regularly. The adherent cell lines NRK52E, HepG2 and Huh 7 were washed once with 10 mL DPBS and detached with Trypsin-EDTA for 5 to 7 min and resuspended in 15 mL of the appropriate medium. The suspension cell line CCRF-CEM were diluted and resuspended in fresh RPMI 1640 PAN medium. To calculate the cell density, the cell resuspensions were diluted 1:6 with DPBS. Equal volumes of cell suspension and Trypan Blue were mixed and gently loaded into a haemocytometer (INCYTO, 31056 Republic of Korea). In each experiment, cell concentrations were adjusted to reach a concentration of 2.5 × 10^3 cell/well for NRK52E, 5 × 10^3 cell/well for HepG2, 6.2 × 10^4 cell/well for CCRF-CEM and 3 × 10^3 for H9. The cells were incubated with decreasing concentration of compounds (1 µL in 96% DMSO) for 72 h at 37 °C with 5% CO2 tension. Cycloheximide, a cytotoxic compound that interferes with the translocation step in eukaryotic protein synthesis was used as a control for the experiments. The assay was carried out in flat-bottom, transparent 96-well plates. Cell viability was determined using the PrestoBlue reagent (Thermo Fisher Scientific, Waltham, MA, USA) according to the manufacture’s protocol. First, 10× PrestoBlue was added to each well to obtain a 1× solution, and incubated at 37 °C for 45 min. Then, fluorescence was measured at Ex/Em: 550/595 nm using a ClarioStar microplate reader (BMG Labtech). Cytotoxicity was determined as the percentage of the difference in absorbance of the untreated sample to the treated sample. CC50 was calculated using the values obtained in each concentration using the sigmoidal dose-response by Prism v.8. The media used in each cell line is detailed in Table S6.

[2] = test system: NRK-52E, epithelial kidney cell line; experiment: Cytotoxicity assay (PrestoBlue), NRK52E; conditions: CC50, 72 h
Method: as §2, §3

S. aureus 133 = experiment: MIC broth microdilution, S. aureus; type: cell-based; conditions: Staphylococcus aureus, 133; Table S3
Procedure, shortened: as §1

[3] = test system: K. pneumoniae clinical isolate; experiment: MIC broth microdilution, K. pneumoniae; type: cell-based; conditions: Klebsiella pneumoniae; Table S3
Procedure, shortened: as §1

[4] = target: T1, PBP3 of P. aeruginosa (PaPBP3) (Pseudomonas aeruginosa, UniProt G3XD46); experiment: S2dfluo fluorescence transpeptidase assay; type: biochemical; conditions: 300 nM PaPBP3, 30 min preincubation, 37 °C; for IC50: read-out: IC50 Determination with PaPBP3, S2dfluo Assay
T1 construct: P. aeruginosa PBP3 (amino acids 40 to 563); His-tag; made in house; host or cells: E. coli BL21 (DE3) Rosetta, plasmid pET41_PBP-3
Method: The assays were carried out in the presence of 5% DMSO and 0.01% Triton X100 to avoid the formation of colloidal structures and adsorption of protein and/or compounds to surfaces. The Z’-factor determined for the assay was 0.73 ± 0.28, indicating the suitability and robustness of the assay for high throughput screening (HTS) (Figure 1B,C).
The activity of soluble ^PaPBP3 (300 nM) was measured in the presence of 0.8 mM S2d, 1 mM D-alanine and 0.5 mM mBBr for 25 min by monitoring the increase in the fluorescence intensity of mBBr at Ex/Em: 394/490 nm using an Infinite M1000 microplate reader (Tecan, Männedorf, Switzerland). To test the effect of inhibitors, 100 µM or 0.8 to 100 µM of compounds diluted in 96% DMSO were incubated for 30 min and 450 rpm with 300 nM soluble PBP3. The incubation period was set to improve the binding of non-covalent inhibitors and 0.01% Triton X100 (Sigma-Aldrich, Taufkirchen, Germany) was added to prevent aggregation of compounds. The enzyme reaction was started by adding a substrate mix of 0.8 mM S2d and […]. The enzyme, compound and substrate mix were mixed 1:1, pipetted with a Liquidator 96 (Melter Toledo, Gießen, Germany) and the fluorescence intensity was directly monitored with an Infinite M1000 microplate reader (Tecan) at Ex/Em: 394/490 nm. The assay was performed in black, flat-bottom 96-well microplates (Greiner Bio-One, Kremsmünster, Austria) at 37 °C in Sorensen Phosphate Buffer (57 mM Na2HPO4 and 10 mM KH2PO4, pH 7.5 + 0.01% Triton X-100). The velocity of the PBP3 reaction was calculated in the presence of each concentration of compound and the velocity values were used to estimate IC50 by sigmoidal nonlinear regression, using Prism v.9 software (San Diego, CA, USA) and the velocity of the reaction at each concentration.

B. subtilis 168 = experiment: MIC broth microdilution, B. subtilis; type: cell-based; conditions: Bacillus subtilis, 168; Table S3
Procedure, shortened: as §1

[5] = test system: Hep G2, epithelial liver cell line; experiment: Cytotoxicity assay (PrestoBlue), HepG2; conditions: CC50, 72 h
Method: as §2, §3

S. pneumoniae = experiment: MIC broth microdilution, S. pneumoniae; type: cell-based; conditions: Streptococcus pneumoniae; Table S3; read-out: MIC (µM) S. pneumoniae
Procedure, shortened: as §1

T1 sequence (G3XD46 40-563): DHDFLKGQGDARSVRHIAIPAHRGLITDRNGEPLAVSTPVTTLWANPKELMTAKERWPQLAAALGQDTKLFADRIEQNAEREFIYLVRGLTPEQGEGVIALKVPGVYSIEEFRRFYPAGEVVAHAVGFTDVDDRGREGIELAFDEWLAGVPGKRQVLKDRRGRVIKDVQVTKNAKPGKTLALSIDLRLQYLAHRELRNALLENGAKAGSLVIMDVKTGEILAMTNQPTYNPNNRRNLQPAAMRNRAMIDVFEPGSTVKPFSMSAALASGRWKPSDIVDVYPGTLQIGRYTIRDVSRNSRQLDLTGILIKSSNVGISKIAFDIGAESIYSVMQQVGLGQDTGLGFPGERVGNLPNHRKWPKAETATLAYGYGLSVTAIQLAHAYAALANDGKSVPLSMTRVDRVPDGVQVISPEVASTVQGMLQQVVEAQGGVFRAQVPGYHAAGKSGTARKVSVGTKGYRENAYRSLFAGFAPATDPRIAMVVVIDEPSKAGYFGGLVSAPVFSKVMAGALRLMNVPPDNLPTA

O=C(C1=C(O)C(=O)N(Cc2cc3cc(Cl)ccc3[nH]2)C1c1ccc(Cl)cc1)c1ccc(Br)cc1 (stereo not drawn) [Compound 35] was tested, and the “MIC (µM) A. baumanii ATCC15308” value (A. baumannii ATCC15308) was greater than 100 µM, the MIC (E. coli Neumann) was greater than 100 µM and the “Cytotoxicity effect (µM) T-lymphocyte H9” value [1] was 96 ± 7 µM. The “Cytotoxicity effect (µM) Epithelial kidney NRK52E” value [2] was 53 ± 5 µM, the MIC (S. aureus 133) was 3.13 µM (≈ 1.74 µg/mL) and the MIC [3] was greater than 100 µM. For the same molecule, the IC50 [4] was 3 ± 1 µM, the MIC (B. subtilis 168) was 6.25 µM (≈ 3.48 µg/mL) and the “Cytotoxicity effect (µM) Epithelial liver HepG2” value [5] was greater than 100 µM. It also gave an MIC (S. pneumoniae) of 6.25 µM (≈ 3.48 µg/mL).

In the case of CCN1C(=O)C(O)=C(C(=O)c2ccc(Br)cc2)C1c1ccc(Cl)cc1 (stereo not drawn) [Compound 33], the “MIC (µM) A. baumanii ATCC15308” value (A. baumannii ATCC15308) is reported as greater than 100 µM, the MIC (E. coli Neumann) is reported as greater than 100 µM and the “Cytotoxicity effect (µM) T-lymphocyte H9” value [1] is reported as greater than 100 µM. The “Cytotoxicity effect (µM) Epithelial kidney NRK52E” value [2] was 84 ± 5 µM, the MIC (S. aureus 133) was greater than 100 µM and the MIC [3] was greater than 100 µM. For the same molecule, the “IC50 Determination with PaPBP3, S2dfluo Assay” value [4] was “loss of the inhibitory effect”, the IC50 [4] was greater than 100 µM and the MIC (B. subtilis 168) was greater than 100 µM. For the same molecule, the “Cytotoxicity effect (µM) Epithelial liver HepG2” value [5] was greater than 100 µM and the MIC (S. pneumoniae) was 50 µM (≈ 21 µg/mL).

For O=C1NC(c2ccc(Cl)cc2)C(C(=O)c2ccc(Br)cc2)=C1O (stereo not drawn) [Compound 32, 4-(4-bromobenzoyl)-5-(4-chlorophenyl)-3-hydroxy-1,5-dihydropyrrol-2-one], the “MIC (µM) A. baumanii ATCC15308” value (A. baumannii ATCC15308) was greater than 100 µM, the MIC (E. coli Neumann) was greater than 100 µM and the “Cytotoxicity effect (µM) T-lymphocyte H9” value [1] was greater than 100 µM. The “Cytotoxicity effect (µM) Epithelial kidney NRK52E” value [2] was 98 ± 5 µM, the MIC (S. aureus 133) was greater than 100 µM and the MIC [3] was greater than 100 µM. The “IC50 Determination with PaPBP3, S2dfluo Assay” value [4] was “loss of the inhibitory effect”, the IC50 [4] was greater than 100 µM and the MIC (B. subtilis 168) was 100 µM (≈ 39.3 µg/mL). The “Cytotoxicity effect (µM) Epithelial liver HepG2” value [5] was greater than 100 µM and the MIC (S. pneumoniae) was greater than 100 µM.

O=C(C1=C(O)C(=O)N(Cc2cccc(F)c2)C1c1ccc(Cl)cc1)c1ccc(Br)cc1 (stereo not drawn) [Compound 1] was tested, and the “MIC (µM) A. baumanii ATCC15308” value (A. baumannii ATCC15308) was greater than 100 µM, the MIC (E. coli Neumann) was greater than 100 µM and the “Cytotoxicity effect (µM) T-lymphocyte H9” value [1] was greater than 100 µM. For the same molecule, the “Cytotoxicity effect (µM) Epithelial kidney NRK52E” value [2] was greater than 100 µM, the MIC (S. aureus 133) was greater than 100 µM and the MIC [3] was greater than 100 µM. The IC50 [4] was 28 ± 9 µM, the MIC (B. subtilis 168) was greater than 100 µM and the “Cytotoxicity effect (µM) Epithelial liver HepG2” value [5] was greater than 100 µM. For the same molecule, the MIC (S. pneumoniae) was 25 µM (≈ 12.5 µg/mL).
